The test system of experiment [1] is Trichoplusia ni. Description: In-planta insecticidal efficacy on sprayed cabbage plants, Pylon® (chlorfenapyr) with unsaturated aliphatic acids (Colby synergy factor). The conditions noted are these: 0.06 mg/mL aliphatic acid (salt). It counts as in vivo. As for the experimental part:
A stock solution was prepared for trans-2-hexenoic acid (available from Sigma-Aldrich, St. […] Green cabbage plants (Brassica oleracea var. capitate, Danish Ballhead cultivar) were grown from seed (available from West Coast Seeds, Delta, BC, Canada) in potting soil for 4 weeks in a pest-free indoor growing environment. At 4 weeks of age, each cabbage plant was sprayed with 10 mL of treatment solution using a hand pump sprayer bottle, and allowed to dry. […] The treated cabbage plants were then placed in nylon isolation tents and kept in an indoor growing environment and the larvae were left to feed on the plants. In one set of cabbage plants, the larvae were left to feed for 48 hours, and then the number of surviving larvae were observed and survival rates (%) were determined. In a second separate set of cabbage plants, the larvae were left to feed for 72 hours, and then the number of surviving larvae were observed and survival rates (%) were determined. Each experiment was repeated at least 3 times. […] In accordance with the Colby Formula, the expected efficacy, E (%), of a combination treatment of compounds A and B in concentrations a and b, respectively, can be determined by evaluating: […] The existence and extent of synergy present in a combination treatment can be determined according to the Colby Formula by evaluating a Synergy Factor, SF=(Observed efficacy)/(Expected efficacy).

The subject of experiment [2] is Trichoplusia ni. Briefly: In-vitro insecticidal efficacy on artificial diet, spinosad (Entrust® SC) with aliphatic acids (Abbott efficacy, Colby synergy factor). The format is in vivo. The conditions noted are these: Entrust SC 0.034 ppm ([…] spinosad); aliphatic acid (salt) 500 ppm; after 5 days; Abbott-corrected. As to the method: An artificial diet suitable for Trichoplusia ni (cabbage looper caterpillar) was prepared from a commercially available general purpose lepidoptera artificial diet premix (General Purpose Lepidoptera Diet available from Frontier Scientific Services, Newark, DE) mixed in agar media and then heated to liquify the media. The liquid artificial diet media was then used to fill each well of a 96-well treatment plate with 200 uL of artificial diet media, which was allowed to solidify at room temperature and stored at approximately 4 C.
A 20 uL treatment sample of each treatment formulation was then placed on top of the solidified artificial diet media in each well of the 96 well plates and allowed to dry overnight. The following day, one neonate Trichoplusia ni (cabbage looper) larva (hatched from eggs obtained from the Natural Resource Canada insect research facility in Sault-Ste-Marie, ON, Canada) was added to each well of the plate, and their mortality rate was evaluated after 5 days, to determine the insecticidal efficacy of the Entrust® SC treatment alone, each exemplary unsaturated or saturated aliphatic acid (and salt) alone, and each combination of spinosad (as Entrust® SC) and unsaturated or saturated aliphatic acid (and salt). Each experiment contained 3 replicates.
(§1) While for SF<1, antagonism is present and for SF=1, the efficacy of the compounds is merely additive.

Another experiment concerns Botrytis cinerea. Description: Synergistic Growth Inhibition Assay (MIC and FIC index, 96-well, resazurin). It counts as cell-based. The conditions noted are these: Botrytis cinerea, 48 h, Table 58; Compound B alone; 48 hours incubation; read-out: MIC (B). A digest of the protocol: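 Checkerboard microdilution of pesticidal active ingredient combined with C6–C10 (or C11/C12) aliphatic acid against Botrytis cinerea, with growth read by resazurin colour change plus visual check. FIC index = sum of each agent's concentration in the inhibiting well divided by its MIC alone; 1 denotes additivity.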
A general note: The colour change of resazurin is a common sign of viable cells or microbes.

The subject of another experiment is Fusarium oxysporum. The experiment is described as above. The format is cell-based. The following applies: Fusarium oxysporum, Compound B alone. The procedure, abridged:
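Checkerboard dilutions of pesticidal active plus C6–C10 (or C11/C12) aliphatic acid in 96-well plates; growth scored by resazurin colour change, optionally visual.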

Experiment [3] has as its system Trichoplusia ni. Description: In-planta insecticidal efficacy on sprayed cabbage plants, spinosad (Entrust® SC) with octanoic acid (Abbott efficacy, Colby synergy factor). The format is in vivo. The following applies: octanoic acid alone at 100 ppm; Abbott-corrected. As to the method:
Green cabbage plants (Brassica oleracea var. capitate, Danish Ballhead cultivar) were grown from seed (available from West Coast Seeds, Delta, BC, Canada) in potting soil for 4-6 weeks in a pest-free indoor growing environment. At between 4-6 weeks of age, each cabbage plant was sprayed with 20 mL of treatment solution using a pressurized CO2 sprayer, and allowed to dry.
as §1

SMILES strings stand for the structures. Read-outs that look alike come from different tables or passages of the source.

For `CC=CC=CC(=O)[O-].[K+]` [2,4-hexadienoic acid, K-salt], the “Observed Efficacy (%)” value was determined as 13% in the experiment on Trichoplusia ni [1] (after 48 hours) and 0% in the experiment on Trichoplusia ni [1] (after 72 hours).

With `CCCCCCCC(=O)[O-].[K+]` [Octanoic acid, K-salt], in the experiment with Trichoplusia ni [2], the “Observed Efficacy, W (%)” value was determined as 0%.

Take `CCCC=CCC(=O)O` [3-heptanoic acid]: in the experiment with Trichoplusia ni [2], the “Observed Efficacy, W (%)” value turned out to be 4.5%.

For `CCCCCCCC(=O)O` [Octanoic acid, octanoic acid], the minimum inhibitory concentration (MIC) (commonly the lowest concentration that inhibits growth of the organism) with Botrytis cinerea was 625 µg/mL; in the experiment on Fusarium oxysporum (24 h, Table 7, 24 hour incubation, read-out: MIC(B)), 569 µg/mL; in the experiment with Fusarium oxysporum (24 h, Table 9, 24 hour incubation, read-out: MIC (B)), 569 µg/mL; with Fusarium oxysporum (Table 8, read-out: MIC (B)), 1140 µg/mL. In addition, the “Observed Efficacy, W (%)” value in the experiment on Trichoplusia ni [3] is 0%.

For `C/C=C/C=C/C(=O)[O-].[K+]` [(2E,4E)-2,4 hexadienoic acid, K-salt], the “Observed Efficacy, W (%)” value with Trichoplusia ni [2] worked out at 9.1%.

The values above are taken from US11839212B2, “Synergistic pesticidal compositions and methods for delivery of insecticidal active ingredients” (0903608 B.C. Ltd., priority 2018, dated 2023).
